What was measured:
CETP = experiment: Ex vivo activity: CETP activity in serum of treated Syrian golden hamsters; settings: ex vivo CETP activity in hamster serum; for ED50 (ex vivo activity): up to 24 hours after administration
Description: Ex vivo activity of the compounds according to the invention
Syrian golden hamsters from in-house breeding are anaesthetized after fasting for 24 hours (0.8 mg/kg of atropine, 0.8 mg/kg of Ketavet® s.c., 30' later 50 mg/kg of Nembutal i.p.). The jugular vein is then exposed and cannulated. The test substance is dissolved in a suitable solvent (as a rule Adalat placebo solution: 60 g of glycerol, 100 ml of H2 O, PEG-400 to 1000 ml) and administered to the animals via a PE catheter inserted in the jugular vein. The control animals receive the same volume of solvent without test substance. The vein is then tied off and the wound is closed.
The administration of the test substances can also be carried out p.o., by orally administering the substances dissolved in DMSO and suspended in 0.5% Tylose by means of a stomach tube. The control animals receive identical volumes of solvent without test substance.
After various times--up to 24 hours after administration--blood (about 250 μl) is taken from the animals by puncture of the retro-orbital venous plexus. Clotting is ended by incubation at 4° C. overnight, then centrifugation is carried out at 6000×g for 10 minutes. In the serum thus obtained, CETP activity is determined by the modified CETP test. As for the CETP test described above, the transfer of ^3 H-cholesterol ester from HD lipoproteins to biotinylated LD lipoproteins is measured.
The reaction is ended by addition of Streptavidin-SPA®beads (Amersham) and the transferred radioactivity is determined directly in the liquid scintillation counter.
The test mixture is carried out as described under "CETP test". For the testing of the serum, only 10 μl of CETP are replaced by 10 μl of the corresponding serum samples. As controls, corresponding incubations with sera of untreated animals are used.
The activity transferred in the control mixtures with control sera is rated as 100% transfer. The substance concentration at which this transfer is reduced to a half is indicated as the ED50 value.

[1] = In vivo activity: oral action on lipoproteins and triglycerides in Syrian golden hamsters (HDL rise); settings: dose 2 × 3 mg/kg, hamster, up to 24 hours after administration
Description: In vivo activity of the compounds according to the invention
In experiments to determine the oral action on lipoproteins and triglycerides, test substance dissolved in DMSO and 0.5% Tylose suspended by means of a stomach tube are administered orally to Syrian golden hamsters from in-house breeding. To determine the CETP activity, blood (about 250 μl) is taken by retro-orbital puncture before the start of the experiment. The test substances are then administered orally by means of a stomach tube. The control animals receive identical volumes of solvent without test substance. […]
Clotting is ended by incubation at 4° C. overnight, then centrifugation at 6000×g is carried out for 10 minutes. In the serum thus obtained, the content of cholesterol and triglycerides is determined with the aid of modified commercially available enzyme tests (cholesterol enzymatic 14366 Merck, triglycerides 14364 Merck). […]
100 μl of serum dilution are mixed with 100 μl of test substance in 96-hole plates and incubated at room temperature for 10 minutes. The optical density is then determined at a wavelength of 492 nm using an automatic plate-reading apparatus. The triglyceride or cholesterol concentration contained in the samples is determined with the aid of a standard curve measured in parallel. […]

[2] = target: T1, cholesterol ester transfer protein (CETP) (Homo sapiens, UniProt P11597); experiment: CETP inhibition test (transfer of 3H-cholesterol ester from human HDL to biotinylated LDL, SPA); assay type: biochemical; settings: 37° C., 18 h
T1 construct: CETP is obtained from human plasma in partially purified form; from tissue; host or cells: human plasma (partially purified in house by differential centrifugation and column chromatography)
T1 sequence (P11597 18-493): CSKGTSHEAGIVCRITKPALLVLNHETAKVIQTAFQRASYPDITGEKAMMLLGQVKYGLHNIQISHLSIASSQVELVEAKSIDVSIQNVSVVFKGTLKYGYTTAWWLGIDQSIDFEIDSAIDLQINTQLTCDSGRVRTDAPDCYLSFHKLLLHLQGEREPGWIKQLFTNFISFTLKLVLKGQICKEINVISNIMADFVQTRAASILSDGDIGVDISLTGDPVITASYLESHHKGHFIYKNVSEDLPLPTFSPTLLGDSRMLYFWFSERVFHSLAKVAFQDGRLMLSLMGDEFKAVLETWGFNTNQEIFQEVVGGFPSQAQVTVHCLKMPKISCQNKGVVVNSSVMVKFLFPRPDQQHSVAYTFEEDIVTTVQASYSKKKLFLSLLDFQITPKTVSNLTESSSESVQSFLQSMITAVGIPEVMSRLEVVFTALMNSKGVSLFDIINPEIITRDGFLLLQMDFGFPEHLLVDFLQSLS
Description: CETP is obtained from human plasma in partially purified form by differential centrifugation and column chromatography and used for the test. To this end, human plasma is adjusted to a density of 1.21 g per ml using NaBr and centrifuged at 4° C. for 18 h at 50,000 rpm. The bottom fraction (d>1.21 g/ml) is applied to a Sephadex®phenyl-sepharose 4B (Pharmacia) column, washed with 0.15 M NaCl/0.001 M tris HCl pH 7.4 and then eluted with distilled water. The CETP-active fractions are pooled, dialysed against 50 mM Na acetate pH 4.5 and applied to a CM-Sepharose® (Pharmacia) column. The column is then eluted using a linear gradient (0-1 M NaCl). The pooled CETP fractions are dialysed against 10 mM tris HCl pH 7.4 and then further purified by chromatography on a Mono Q® column (Pharmacia).
Obtainment of radiolabelled HDL
50 ml of fresh human EDTA plasma are adjusted to a density of 1.12 using NaBr and centrifuged at 50,000 rpm for 18 h at 4° C. in a Ty 65 rotor. The upper phase is used to obtain cold LDL. The lower phase is dialysed against 3×4 l of PDB buffer (10 mM tris/HCl pH 7.4, […], 1 mM EDTA, 0.02% NaN3). 20 μl of ^3 H-cholesterol (Dupont NET-725; 1 μC/μl dissolved in ethanol) are then added per 10 ml of retentate volume and the mixture is incubated under N2 at 37° C. for 72 h. […]
To test the CETP activity, the transfer of ^3 H-cholesterol ester from human HD lipoproteins to biotinylated LD lipoproteins is measured. The reaction is ended by addition of streptavidin-SPA®beads (Amersham) and the transferred radioactivity is determined directly in a liquid scintillation counter.
In the test mixture, 10 μl of HDL-^3 H-cholesterol ester (~50,000 cpm) are incubated at 37° C. for 18 h with 10 μl of biotin-LDL (Amersham) in 50 mM Hepes/0.15 M NaCl/0.1% bovine serum albumin/0.05% NaN3 pH 7.4 with 10 μl of CETP (1 mg/ml) and 3 μl of solution of the substance to be tested (dissolved in 10% DMSO/1% RSA). 200 μl of the SPA-streptavidin bead solution (TRKQ 7005) are then added, the mixture is incubated further for 1 h with shaking and then measured in the scintillation counter. […]

[3] = In vivo activity in transgenic hCETP mice (change in HDL, LDL, triglycerides); settings: 80 ppm in the feed, one week
Description: In vivo activity in transgenic hCETP mice
Transgenic mice from in-house breeding (Dinchuck, Hart, Gonzalez Karmann Schmidt, Wirak; BBA (1995), 1295, 301) were administered the substances to be tested in the feed. Before the start of the experiment, blood was taken retro-orbitally from the mice in order to determine cholesterol and triglycerides in the serum. The serum was obtained as described above for hamsters by incubation at 4° C. overnight and subsequent centrifugation at 6000×g. After one week, blood was again taken from the mice in order to determine lipoproteins and triglycerides. The change in the parameters measured is expressed as a percentage change compared with the starting value.

Compound | ED50 (ex vivo activity) (CETP) [mg/kg] | % Inhibition at 10 mg/kg (CETP) [%] | % HDL rise [1] [%] | IC50 [2] [µM] | HDL (percentage change compared with the starting value) [3] | LDL (percentage change compared with the starting value) [3] | Triglycerides (percentage change compared with the starting value) [3] [%]
CC1CC(O)c2c(nc(C3CCCC3)c(C(O)c3ccc(C(F)(F)F)cc3)c2-c2ccc(F)cc2)N1Cc1ccccc1 (single isomer, unassigned) [Example 21] | > 10 | 34.4 |  |  |  |  | 
OC1CSCc2nc(C3CCCC3)c(C(F)c3ccc(C(F)(F)F)cc3)c(-c3ccc(F)cc3)c21 (centres unmarked) [Example 12] | < 10 | 49.5 | 12.37 | 0.2 |  |  | 
O=S1(=O)Cc2nc(C3CCCC3)c(C(O)c3ccc(C(F)(F)F)cc3)c(-c3ccc(F)cc3)c2C(O)C1 (centres unmarked) [Example 14] |  |  |  | 6 |  |  | 
OC1CCN(Cc2ccccc2)c2nc(C3CCCC3)c(Cc3ccc(C(F)(F)F)cc3)c(-c3ccc(F)cc3)c21 (centres unmarked) [Example 16] |  |  |  | 0.85 |  |  | 
CC1CC(O)c2c(nc(C3CCCC3)c(Cc3ccc(C(F)(F)F)cc3)c2-c2ccc(F)cc2)N1Cc1ccccc1 (centres unmarked) [Example 20] | > 10 | 50.4 | 9.21 |  | +14.5% | +6.7% | -24.5
